Columns and labels:
[1] = target: GSK-3αβ; assay: GSK-3αβ kinase inhibition (GS-1 substrate, buffer A); type: biochemical; settings: 15 μM ATP, 30° C., native, pig brain; read-out: IC50 Kinases GSK3
Experimental: (§1) The activities for inhibiting protein kinases of the compounds of the invention are tested according to the following general procedure:
(§2) Buffer A: 10 mM MgCl2, 1 mM EGTA, 1 mM DTT, 25 mM Tris-HCl pH 7.5 and 50 μg heparin/mL.
(§3) The kinase activities are dosed in buffers A or C, at 30° C., at a final concentration of ATP of 15 μM. The values of the blanks were subtracted and the activities are expressed as a % of the maximum activity, i.e. in the absence of inhibitors. The controls were carried out with suitable dilutions of DMSO.
GSK-3αβ (from pig brain, native) was assayed by using a specific substrate of GSK-3 (GS-1: […]pEDEEE)(Sp represents a phosphorylated serine) (Primot, A., Baratte, B., Gompel, M., Borgne, A., Liabeuf, S., Romette, J. L., Costantini, F. and Meijer, L., 2000. Purification of GSK-3 by affinity chromatography on immobilized axin. Protein Expr. & Purif. 20 (3), 394-404). GS-1 was synthesized by Millegen (Labège, France). Its kinase activity was analyzed in the buffer A, with 1 mg of histone H1/mL, in the presence of 15 μM of [γ-^33P] ATP (3,000 Ci/mmol; 10 mCi/mL) in a final volume of 30 μl. After 30 mins of incubation at 30° C., 25 μl of supernatant aliquots were deposited on 2.5×3 cm pieces of phosphocellulose Whatman P81papier, and after 20 seconds, the filters were washed five times (for at least 5 minutes every time) in a solution of 10 mL of phosphoric acid/liter of water. The wet filters were counted in the presence of 1 mL of ACS scintillator fluid (Amersham).

[2] = tested on: NCI; assay: Cytotoxicity on human cells, NCI (lung); type: cell-based; settings: exposed 24 h and 48 h, 0.1 to 25 μM
Experimental: (§4) […] Dosages on Human cells (Huh7, Caco, MDA-MB 231, HCT 116, PC3, NCl, Fibroblast)
(§5) Cytotoxicity: This method is based on an automated imaging analysis. 4.10^3 cells were cultivated on 96-well plates and thus left for 24 hours so that they may bind, be distributed and proliferate.
(§6) These cells were then exposed for 24 h and 48 h to increasing concentrations of the compounds of the invention, from 0.1 to 25 μM in a final volume of 80 μL of culture medium. The cells are then set with a 4% paraformaldehyde solution and the nuclei are colored with Hoechst 3342 and counted according to automated imaging quantification.
(§7) All the cell lines were cultivated in a DMEM or RPMI (Invitrogen) medium. All these media were completed with antibiotics (penicillin-streptomycin)(Lonza) and 10% by volume of foetal calf serum (Invitrogen). The cells were cultivated at 37° C. with 5% of CO2. The treatments with the molecules to be tested were carried out with increasing concentrations. […] The control experiments were also conducted by using suitable dilutions of DMSO (maximum 1% DMSO). Cell viability was determined by measuring the reduction of MTS as described in the article of Ribas J, Boix J. (2004). Cell differentiation caspase inhibition and macromolecular synthesis blockage but not BCL-2 or BCL-XL proteins protect SH-SY5Y cells from apoptosis triggered by two CDK inhibitory drugs. Exp. Cell Res., 295: 9-24.

[3] = tested on: PC3; assay: Cytotoxicity on human cells, PC3 (prostate); type: cell-based; settings: PC-3, human cells, exposed 24 h and 48 h, 0.1 to 25 μM
Experimental: as §4, §5, §6, §7

[4] = tested on: Huh7; assay: Cytotoxicity on human cells, Huh7 (liver); type: cell-based; settings: Huh-7, human cells, exposed 24 h and 48 h, 0.1 to 25 μM
Experimental: as §4, §5, §6, §7

[5] = target: T1, CDK5 (Homo sapiens, UniProt Q00535); assay: CDK5 kinase inhibition (histone H1, [γ-33P] ATP, buffer C); type: biochemical; settings: 15 μM ATP, 30° C., recombinant; read-out: IC50 Kinases CDK5
T1 construct: made in house
Experimental: as §1
Buffer C: 60 mM β-glycerophosphate, 15 mM p-nitrophenyl-phosphate, 25 mM Mops (pH 7.2), 5 mM EGTA, 15 mM MgCl2, 1 mM DTT, 1 mM of sodium vanadate
as §3
CDK5 (humane, recombinant) was prepared as described earlier (Leclerc, S.; Garnier, M.; Hoessel, R.; Marko, D.; Bibb, J. A.; Snyder, G. L.; Greengard, P.; Biernat, J.; Mandelkow, E.-M.; Eisenbrand, G.; Meijer, L. Indirubins inhibit glycogen synthase kinase-3β and CDK5/p25, two kinases involved in abnormal tau phosphorylation in Alzheimer's disease—A property common to most CDK inhibitors? J. Biol. Chem. 2001, 276, 251-260; Bach S, Knockaert M, Reinhardt J, Lozach O, Schmitt S, Baratte B et al. (2005). Roscovitine targets, protein kinases and pyridoxal kinase. J. Biol Chem 280: 31208-31219). Its kinase activity was analyzed in the buffer C, with 1 mg of histone H1/mL, in the presence of 15 μM of [γ-^33P] ATP (3,000 Ci/mmol; 10 mCi/mL) in a final volume of 30 μl. After 30 mins of incubation at 30° C., 25 μl of supernatant aliquots were deposited on 2.5×3 cm pieces of phosphocellulose Whatman P81 paper, and after 20 seconds, the filters were washed five times (for at least 5 minutes every time) in a solution of 10 mL phosphoric acid/liter of water. The wet filters were counted in the presence of 1 mL of ACS scintillator fluid (Amersham).

[6] = tested on: MDA-MB 231; assay: Cytotoxicity on human cells, MDA-MB 231 (breast); type: cell-based; settings: MDA-MB-231, human cells, exposed 24 h and 48 h, 0.1 to 25 μM
Experimental: as §4, §5, §6, §7

[7] = tested on: fibroblast; assay: Cytotoxicity on human cells, fibroblast; type: cell-based; settings: exposed 24 h and 48 h, 0.1 to 25 μM
Experimental: as §4, §5, §6, §7

[8] = tested on: Caco; assay: Cytotoxicity on human cells, Caco (colon); type: cell-based; settings: exposed 24 h and 48 h, 0.1 to 25 μM
Experimental: as §4, §5, §6, §7

[9] = tested on: HCT 116; assay: Cytotoxicity on human cells, HCT 116 (colon); type: cell-based; settings: exposed 24 h and 48 h, 0.1 to 25 μM
Experimental: as §4, §5, §6, §7

[10] = target: DYRK1A (Homo sapiens, UniProt Q13627); assay: DYRK1A kinase inhibition (Woodtide substrate, buffer A); type: biochemical; settings: 15 μM ATP, 30° C., recombinant GST fusion; read-out: IC50 Kinases DYRK1A
Experimental: as §1, §2, §3

T1 sequence (Q00535 whole entry): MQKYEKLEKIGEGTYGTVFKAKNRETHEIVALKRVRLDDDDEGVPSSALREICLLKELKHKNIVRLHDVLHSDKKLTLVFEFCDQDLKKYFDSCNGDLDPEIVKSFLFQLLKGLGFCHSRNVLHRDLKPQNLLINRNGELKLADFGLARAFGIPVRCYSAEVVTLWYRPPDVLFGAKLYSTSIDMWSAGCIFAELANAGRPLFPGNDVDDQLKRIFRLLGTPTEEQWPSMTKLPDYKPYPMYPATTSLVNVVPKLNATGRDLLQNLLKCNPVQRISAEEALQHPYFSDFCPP
T1 sequence (Q15078 99-307 partner limits assumed): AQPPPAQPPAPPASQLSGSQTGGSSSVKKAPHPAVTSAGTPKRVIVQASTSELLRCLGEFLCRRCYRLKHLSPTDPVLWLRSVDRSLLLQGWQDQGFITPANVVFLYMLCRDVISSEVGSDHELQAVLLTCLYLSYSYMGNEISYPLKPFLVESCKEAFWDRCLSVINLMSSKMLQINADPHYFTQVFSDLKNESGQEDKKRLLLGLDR

SMILES	IC50 [1]	melting point	IC50 [2]	IC50 [3]	IC50 [4]	IC50 [5]	IC50 [6]	IC50 [7]	IC50 [8]	IC50 [9]	IC50 [10]
Oc1ccc(-c2ncc3ncc(-c4cccs4)cc3n2)cc1 [Compound 38, 2-(4-Hydroxyphenyl)-7-(2-thiophyl)-pyrido[3,2-d]pyrimidine]	> 10 µM	240 to 242 °C	3 µM	25 µM	> 25 µM	0.11 µM	> 25 µM	2 µM	> 25 µM	4 µM	> 10 µM
COc1ccc(Nc2cnc3cnc(-c4ccc(O)cc4)nc3c2)cc1 [Compound 51, 2-(4-Hydroxyphenyl)-7-(4-methoxyphenylamino)-pyrido[3,2-d]pyrimidine]	7.3 µM	134 to 136 °C	10 µM	2 µM	15 µM	1.8 µM	15 µM	10 µM	12 µM	15 µM	> 10 µM
Oc1ccc(-c2ncc3ncc(Nc4nc5ccccc5s4)cc3n2)cc1 [Compound 47, 2-(4-Hydroxyphenyl)-7-(2-benzothiazolamino)-pyrido[3,2-d]pyrimidine]	> 10 µM	> 268 °C	> 25 µM	> 25 µM	> 25 µM	5.3 µM	> 25 µM	> 25 µM	> 25 µM	> 25 µM	> 10 µM
Oc1ccc(Nc2ncc3ncc(Cl)cc3n2)cc1 [Compound 59, 7-Chloro-2-(4-hydroxyphenylamino)-pyrido[3,2-d]pyrimidine]	> 10 µM	232 to 234 °C	10 µM	12 µM	12 µM	1.1 µM	6 µM	5 µM	> 25 µM	2 µM	> 10 µM
COc1ccc(Nc2cnc3c(NCc4ccccc4)nc(NCCO)nc3c2)cc1OC [Compound 85, 4-Benzylamino-7-(3,4-dimethoxyphenylamino)-2-(2-hydroxyethylamino)-pyrido[3,2-d]pyrimidine]	> 10 µM	149 to 150 °C	2 µM	4 µM	1.5 µM	> 10 µM	15 µM	5 µM	4 µM	4 µM	> 10 µM
Oc1ccc(-c2ncc3ncc(Nc4ncccn4)cc3n2)cc1 [Compound 52, 2-(4-Hydroxyphenyl)-7-(2-pyrimidinylamino)-pyrido[3,2-d]pyrimidine]	> 10 µM	> 268 °C	1.5 µM	1.5 µM	25 µM	7.6 µM	2.5 µM	2 µM	5 µM	2 µM	> 10 µM
Oc1ccc(-c2ncc3ncc(-c4ccccc4O)cc3n2)cc1 [Compound 24, 2-(4-Hydroxyphenyl)-7-(2-hydroxyphenyl)-pyrido[3,2-d]pyrimidine]	≥ 100 µM	278 to 279 °C	> 25 µM	20 µM	25 µM	0.09 µM	> 25 µM	> 25 µM	20 µM	20 µM	2.7 µM

Source: patent US20130109693A1, “DERIVATIVES OF PYRIDO [3,2-D] PYRIMIDINE, METHODS FOR PREPARATION THEREOF AND THERAPEUTIC USES THEREOF” (UNIVERSITE D'ORLEANS, priority 2010, published 2013)
